Experimental data: patent publication US9307765B2, “Selective weed control using D-napropamide” (UPL Limited, priority 2013, dated 2016)
“And” between values parts separate entries of the source, which are not always exact repeats. Equal entries are not always repeated.

What was measured:
Format in all cases: in vivo
Stellaria media = experiment: Pre-emergence glasshouse pot study, seedling emergence and growth (OECD guideline); conditions: for EC50 based on the final fresh weights: Stellaria media (dicot), 21 day assessment, probit; for Mean Final Foliar Fresh Weights Expressed as Percentage of Untreated Controls / Mean Final Foliar Fresh Weights: Stellaria media; for Mean Final Foliar Fresh Weights: 21 days after 50% emergence, untreated 1.44
Protocol: (§1) A study was carried out to determine the relative biological activity of the D and L isomers of Napropamide when applied pre-emergence to one monocotyledon and one dicotyledon species. Napropamide, containing 450 grammes active substance per liter (g a.s./L) formulated as a suspension concentrate and the D-isomer of Napropamide (1000 g a.s./L) were applied at a range of concentrations from 0.1575 to 1.26 kilograms of active substance per hectare (kg a.s/Ha).
(§2) EC50 values in kg a.s./Ha were calculated from the dose response data using final foliar fresh weight data for each species and was used to determine the relative biological activity of the D and L isomers of Napropamide. The methodology was based on the OECD guideline […], according to the revision of July 2006 for seedling emergence and growth. The study was conducted to GLP standards.
(§3) Seeds were sown directly into non-porous plastic pots containing the following mix of soil: 10 L of sterile loam+4 L of coarse grit (washed quartztite, nominal 4 mm)+10 L of sand. This soil mix was characterized as a sandy loam with an organic carbon content of 1.5% and pH of 7.2. Details of the plant species, number of seeds per pot and pot size are shown below. All seeds were sown 1-2 cm deep.
(§4) The highest concentration of Napropamide was prepared by measuring a calculated volume by weight and diluting with tap water to the full required volume. Lower concentrations were prepared by serial dilution with water. D-Napropamide was prepared by dissolving the calculated weight in acetone and adding water to give the full required volume in 50:50 acetone+water. Lower concentrations were prepared by serial dilution with 50:50 acetone+water. D-Napropamide dissolved completely.
(§5) The sprayer was calibrated within 24 hours prior to application by weight of 15 applications of water to six 86 mm ID petri dishes. The total weight of water over a known area enabled a simple calculation giving the volume rate to be made. The volume rate achieved was within the range specified in the study plan (200 L/Ha±10%).
(§6) Replication was 5 pots per treatment for each plant species. After application, pots were placed on the bench in glasshouse in randomized blocks. Plants were assessed for emergence, mortality and visual injury (expressed as a percentage of the untreated control: 0%=no injury, 1-39%=slight injury, 40-69%=moderate injury, 70-99%=severe injury and 100%=all plants dead) at 14 and 21 days after 50% emergence in the untreated controls. Fresh weights (biomass above soil level) were also recorded 21 days after 50% emergence in the untreated controls. Plants were fully turgid at the time of harvest.
(§7) Assessment data was recorded on pro-forma sheets and entered into Gylling ARM 7 software. EC50 values were calculated using audited means data from the final assessments (21 day). Gylling ARM 7.0 software used a simple probit—maximum likelihood estimation method with 99% confidence level. The EC50 values generated were then visually checked against the means data table to verify they appeared correct.

Papaver rhoeas = experiment: Field trial on strawberries, pre-emergence, visual % control
Protocol: (§8) Field trials were conducted on various moncotyledonous weeds and dicotyledonous weeds and the effect of D-isomer of Napropamide was studied to understand the selective and effective control of dicotyledonous weeds over monocotyledonous weeds. The effect of D-isomer of Napropamide in comparison to racemic napropramide and untreated was studied, which is concluded hereinbelow:
(§9) Several small plot replicated trials were carried out to evaluate and/or compare the efficacy of D-Napropamide against a range of indicated annual broadleaved and grass weed species in the indicated crops. No problems were encountered during mixing or application of any of the product formulations or tank mixtures under test.
(§10) In each of the reported data, the homogeneity of variance was tested by Bartlett's test. Wherever this test indicated no homogeneity of variance, the transformed values were used for analysis of variance. Assessment data was then analyzed using a two-way analysis of variance (ANOVA) on untransformed and transformed data. The probability of no significant differences occurring between treatment means was calculated as the F probability value (p(F)). A mean comparison test was only performed and reported when the treatment of F that was calculated during analysis of variance was significant at the observed significance level specified for the mean comparison test. Where the data was transformed, treatment means in the reports were presented in their detransformed state, with the appropriate letter test and mean descriptions (LSD and standard deviation) derived from the transformed ANOVA.
(§11) Trial was carried out on strawberries to evaluate the efficacy and selectivity of D-Napropamide and equivalent rate of Devrinol (Napropramide) applied pre-emergence. […]

Senecio vulgaris [1] = experiment: as above
Protocol: as §8, §9, §10, §11

Ranunculus repens = experiment: as above
Protocol: as §8, §9, §10
Trial was carried out on strawberries to evaluate the efficacy and selectivity of D-Napropamide and equivalent rate of Devrinol (Napropramide) applied pre-emergence. […] The percentage control of D-isomer of Napropamide and Devrinol was assessed in comparison to the untreated after 224 days after application.

Matricaria sp. = experiment: Field trial in winter oilseed rape, pre-emergence, % control and ground cover; conditions: 450 g/L @ 2.8 L/Ha
Protocol: as §8, §9, §10
(§12) Trials were conducted to evaluate the selectivity and efficacy of D-isomer of Napropamide when applied pre-emergence to oilseed rape crop. The % control of weed was assessed at regular intervals.

Digitaria sanguinalis = experiment: Plot trial, % control of Digitaria sanguinalis; conditions: 9 L/Ha of 450 g/L formulation
Protocol: as §8, §9
as §10, with “ANOVA. […]” for “ANOVA.”

Poa annua = experiment: Pre-emergence glasshouse pot study, seedling emergence and growth (OECD guideline); conditions: for Mean Final Foliar Fresh Weights Expressed as Percentage of Untreated Controls / Mean Final Foliar Fresh Weights: Poa annua; for Mean Final Foliar Fresh Weights: 21 days after 50% emergence, untreated 0.90
Protocol: as §1, §2, §3, §4, §5, §6, §7

Cirsium arvense = experiment: Field trial in winter oilseed rape, pre-emergence, % control
Protocol: as §8, §9, §10, §12

Fallopia convolvulus = experiment: as above
Protocol: as §8, §9, §10, §12

Veronica persica = experiment: as above
Protocol: as §8, §9, §10, §12

Aperaspica-venti = experiment: as above
Protocol: as §8, §9, §10, §12

Senecio vulgaris [2] = experiment: as above
Protocol: as §8, §9, §10, §12

CCN(CC)C(=O)[C@H](C)Oc1cccc2ccccc12 [L-Napropamide, reference compound]
EC50 based on the final fresh weights (Stellaria media): 1.26 kg/Ha

CCN(CC)C(=O)C(C)Oc1cccc2ccccc12 (racemic) [Napropamide, N,N-diethyl-2-(α-naphthoxy)propionamide]
Percentage Control at 70 DAA (Papaver rhoeas; 5 L/Ha of 450 g/L formulation): 62.5% | Percentage Control at 70 DAA (Papaver rhoeas; 7 L/Ha of 450 g/L formulation): 81.7% | Percentage Control at 70 DAA (Papaver rhoeas; 14 L/Ha of 450 g/L formulation): 82.5% | Percentage Control at 70 DAA (Senecio vulgaris [1]; 5 L/Ha of 450 g/L formulation): 37.5% | Percentage Control at 70 DAA (Senecio vulgaris [1]; 7 L/Ha of 450 g/L formulation): 25.0% | Percentage Control at 70 DAA (Senecio vulgaris [1]; 14 L/Ha of 450 g/L formulation): 12.5% | Percentage Control at 224 DAA (Ranunculus repens; 5 L/Ha of 450 g/L formulation): 33.3% | Percentage Control at 224 DAA (Ranunculus repens; 7 L/Ha of 450 g/L formulation): 66.7% | Percentage Control at 224 DAA (Ranunculus repens; 14 L/Ha of 450 g/L formulation): 83.3% | Percentage ground cover %, value in brackets (untreated 0.0%) (Matricaria sp.): (52.8%) | Percentage Control at 49 DAA (Matricaria sp.; oilseed rape): 61.25% | Percentage ground cover % (Matricaria sp.; untreated 4.50): 2.13% | % Control (Digitaria sanguinalis; 16 DAA): 12.50% | % Control (Digitaria sanguinalis; 33 DAA): 15.00% | EC50 based on the final fresh weights (Stellaria media): 0.22 kg/Ha | Mean Final Foliar Fresh Weights Expressed as Percentage of Untreated Controls (Stellaria media; rate 0.1575 kg/Ha): 70% | Mean Final Foliar Fresh Weights (Stellaria media; rate 0.315 kg/Ha pre-emergence): 0.3 g | Mean Final Foliar Fresh Weights (Stellaria media; rate 0.63 kg/Ha pre-emergence): 0.328 g | Mean Final Foliar Fresh Weights Expressed as Percentage of Untreated Controls (Stellaria media; rate 1.26 kg/Ha): 16% | EC50 based on the final fresh weights (Poa annua; Poa annua (monocot), 21 day assessment, probit): 0.72 kg/Ha | Mean Final Foliar Fresh Weights Expressed as Percentage of Untreated Controls (Poa annua; rate 0.1575 kg/Ha): 100% | Mean Final Foliar Fresh Weights (Poa annua; rate 0.315 kg/Ha pre-emergence): 0.57 g | Mean Final Foliar Fresh Weights (Poa annua; rate 0.63 kg/Ha pre-emergence): 0.98 g | Mean Final Foliar Fresh Weights Expressed as Percentage of Untreated Controls (Poa annua; rate 1.26 kg/Ha): 23% | Mean Percentage Control (Cirsium arvense; 450 g/L @ 2.8 L/Ha): 20.00% | Conclusion: control of the weed at equivalent dosage (Cirsium arvense; Cirsium arvense, dicot): negligible control | Percentage Control at 63 DAA (Fallopia convolvulus; 450 g/L @ 1.6 L/Ha): 30.00% | Percentage Control at 63 DAA (Fallopia convolvulus; 450 g/L @ 2.8 L/Ha): 0.00% | Percentage Control at 63 DAA (Veronica persica; 450 g/L @ 1.6 L/Ha): 75.00% | Percentage Control at 63 DAA (Veronica persica; 450 g/L @ 2.8 L/Ha): 75.00% | Percentage Control at 63 DAA (Aperaspica-venti; 450 g/L @ 1.6 L/Ha): 40.00% | Percentage Control at 63 DAA (Aperaspica-venti; 450 g/L @ 2.8 L/Ha): 76.25% and 67.50% | Percentage Control at 63 DAA (Senecio vulgaris [2]; 450 g/L @ 1.6 L/Ha): 36.96% | Percentage Control at 63 DAA (Senecio vulgaris [2]; 450 g/L @ 2.8 L/Ha): 4.65%
